Experimental data as given in publication PMC9959048, “Lipidation of Naturally Occurring α-Helical Antimicrobial Peptides as a Promising Strategy for Drug Design” (International Journal of Molecular Sciences, 2023).
Values after ≈ are worked out from the molar mass of the structure shown. Residues, ends and D or L forms follow the SMILES beside them. *: point of attachment. Decanoyl = CCCCCCCCCC(=O)*; Octanoyl = CCCCCCCC(=O)*

Key:
S. aureus PCM1650 = type: cell-based, Staphylococcus aureus; settings: Mueller–Hinton broth, inoculum 5 × 10^5 CFU/mL, 24 h, 37 °C, absorbance 600 nm, triplicate
Description: (§1) The evaluation of the antimicrobial activity of the synthesized lipopeptides was performed against the following reference bacterial and fungal strains: Staphylococcus aureus PCM 1650, Staphylococcus aureus PCM 2054, Staphylococcus epidermidis PCM 521, Staphylococcus epidermidis PCM 2118, Escherichia coli PCM 2057, Candida albicans PCM 2566, Candida glabrata CCM 8270, Candida krusei CCM 8271, Candida parapsilosis CCM 8260.
(§2) For the initial cultivation of the bacteria and fungi, Luria-Bertani broth (LB, Biomaxima, Lublin, Poland) and Sabouraud Dextrose broth (SB, Biomaxima, Lublin, Poland) were used, respectively. Antimicrobial properties of the compounds were analyzed through the determination of MIC (minimal inhibitory concentrations) by my means of the serial micro-dilution technique according to the guidelines of Clinical & Laboratory Standard Institute (CLSI) established for aerobic bacteria and yeasts.
(§3) According to the procedures, Mueller–Hinton broth (MHB) was used as the working medium for the analysis of the bacterial susceptibility, while RPMI-1640 (with L-glutamine, without sodium bicarbonate) growth medium buffered with MOPS (morpholinepropanesulfonic acid) and supplemented with 2% glucose was used for the experiments with the fungi.
(§4) The experiments were carried out for 24 h at 37 and 35 °C for the bacteria and fungi, respectively. Then, the absorbance was measured at 600 nm for each well of the 96-well plate using a microplate reader (Sunrise TM, Tecan Trading AG, Männedorf, Switzerland). Based on the obtained results, the degree of inhibition of the growth of microorganisms (expressed in %) in the presence of the tested compounds range was determined with respect to the control probes. Inoculated wells without peptide were treated as a positive control (100% growth), and the wells containing working medium only were defined as a negative control (0% growth). All measurements were repeated in triplicate.

S. aureus PCM2054 = type: cell-based, Staphylococcus aureus; settings: Mueller–Hinton broth, inoculum 5 × 10^5 CFU/mL, 24 h, 37 °C, absorbance 600 nm, triplicate
Description: as §1, §2, §3, §4

S. epidermidis PCM2118 = type: cell-based, Staphylococcus epidermidis; settings: Mueller–Hinton broth, inoculum 5 × 10^5 CFU/mL, 24 h, 37 °C, absorbance 600 nm, triplicate
Description: as §1, §2, §3, §4

S. epidermidis PCM521 = type: cell-based, Staphylococcus epidermidis; settings: Mueller–Hinton broth, inoculum 5 × 10^5 CFU/mL, 24 h, 37 °C, absorbance 600 nm, triplicate
Description: as §1, §2, §3, §4

E. coli PCM2057 = type: cell-based, Escherichia coli; settings: Mueller–Hinton broth, inoculum 5 × 10^5 CFU/mL, 24 h, 37 °C, absorbance 600 nm, triplicate
Description: as §1, §2, §3, §4

C. albicans PCM2566 = type: cell-based, Candida albicans; settings: RPMI-1640 with MOPS and 2% glucose, inoculum 5 × 10^3 CFU/mL, 24 h, 35 °C, absorbance 600 nm, triplicate
Description: as §1, §2, §3, §4

C. glabrata CCM8270 = type: cell-based, Candida glabrata; settings: RPMI-1640 with MOPS and 2% glucose, inoculum 5 × 10^3 CFU/mL, 24 h, 35 °C, absorbance 600 nm, triplicate
Description: as §1, §2, §3, §4

C. krusei CCM8271 = type: cell-based, Candida krusei; settings: RPMI-1640 with MOPS and 2% glucose, inoculum 5 × 10^3 CFU/mL, 24 h, 35 °C, absorbance 600 nm, triplicate
Description: as §1, §2, §3, §4

C. parapsilosis CCM 8260 = type: cell-based, Candida parapsilosis; settings: RPMI-1640 with MOPS and 2% glucose, inoculum 5 × 10^3 CFU/mL, 24 h, 35 °C, absorbance 600 nm, triplicate
Description: as §1, §2, §3, §4

[1] = test system: human breast cancer cells (MCF-7 line, ATCC); experiment: MTT cytotoxicity assay; type: cell-based; settings: IC50 against HaCaT divided by IC50 for MCF-7
Description: (§5) The prepared plates were further incubated for 48 h. […] The control cell viability was assumed to be 100%. Three independent experiments were carried out in three repetitions.

[2] = test system: human prostate cancer cells (PC3 line, ATCC); experiment: MTT cytotoxicity assay; type: cell-based; settings: IC50 against HaCaT divided by IC50 for PC3
Description: as §5

[3] = Dynamic light scattering of lipopeptide assemblies; type: physicochemical; settings: DLS, sonicated 10 min, incubated 1 h, 90° side scatter
Description: The hydrodynamic diameters of the lipopeptide nanoaggregates were examined by the Litesizer 500 (Anton-Paar GmbH, Graz, Austria) at 25 °C. The measurements were carried out at various lipopeptide concentrations ranging from 0.5 to 2 mM and from 0.25 to 2 mM, in water and PBS, respectively. Two-fold serial dilutions were used to obtain the sequential concentrations. Each sample was sonicated for 10 min followed by incubation for 1 h at 25 °C and transferred to the polystyrene cuvette. The detector was positioned at a side scatter position (90°). The analysis of the obtained results and report generation was performed with KalliopeTM software (Anton-Paar GmbH, Graz, Austria).

POPC liposomes = experiment: CD, α-helix content in POPC liposomes; type: physicochemical; settings: 25 °C, peptide 0.15 mg/mL, 1.3 mM POPC; for α-Helix percentage, POPC: from ellipticity at 222 nm
Description: (§6) Large unilamellar vesicles (LUV) were obtained by extrusion of MLV liposomes through polycarbonate membrane filters with a pore diameter of 100 nm (Whatman International Ltd., Kent, UK) using a mini-extruder (Avanti Polar Lipids, Inc., Alabaster, AL, USA).
(§7) CD experiments were carried out at 25 °C using a Jasco J-815 spectropolarimeter in the wavelength range 185–260 nm. The concentration of the lipopeptides was 0.15 mg/mL. The CD spectra were recorded in water, PBS (pH 7.4), 1.3 mM POPC and 1.3 mM POPG. The results are plotted as the mean molar ellipticity per one amino acid residue (MRME, deg cm^2 dmol^−1) as a function of the wavelength (nm). Additionally, we performed a conformational analysis of the selected compounds in the presence of S. aureus cells. […] The mixtures were then incubated for 2 h before recording the CD spectra.
(§8) The percentage of the α-helical structure was calculated based on the mean molar ellipticity at 222 nm using the formula: fH=θ222−3000/−36000−3000·100% where θ222 corresponds to the value of the mean molar ellipticity at a wavelength of 222 nm.

POPG liposomes = experiment: CD, α-helix content in POPG liposomes; type: physicochemical; settings: 25 °C, peptide 0.15 mg/mL, 1.3 mM POPG; for α-Helix percentage, POPG: from ellipticity at 222 nm
Description: as §6, §7, §8

POPG LUVs = experiment: Isothermal titration calorimetry, binding to POPG LUVs; settings: ITC, 25 °C
Description: as §6
The thermodynamic parameters of the interactions of the lipopeptides with POPG and POPC liposomes were determined by isothermal titration calorimetry (ITC). Measurements were performed at 25 °C using an AutoITC microcalorimeter (MicroCal Inc., Northampton, MA, USA) with a 1.4491 mL sample and reference cells. The experiment consisted in the titration of a buffered peptide solution with a concentration of 0.05 and/or 0.07 mM with a buffered solution containing POPG or POPC LUVs with a lipid concentration of 1.3 and 1.8 mM (10.02 µL; 29 injections, 2 µL for the first injection only), as it was described previously. The result of the titration was a thermogram showing a series of peaks corresponding to the titration steps. A titration curve was obtained after integration of the peak areas. The obtained isotherms were fitted to the “one set of sites” or “two sets of sites” models available in the ORIGIN 7.0 (MicroCal Inc., Northampton, MA, USA), which made it possible to determine the enthalpy (ΔH), the binding constant (KITC) and the stoichiometry (N) of the interactions between the lipopeptide and the lipids. The following formula was used to calculate the entropy change (ΔS) and the Gibbs free energy (ΔG): ΔG=−RTln(55.5KITC)=ΔH−TΔS where: factor 55.5 is the molar concentration of water, R is the gas constant (1.986 cal·mol^−1·K^−1), and T is the absolute temperature.

S. aureus cells = experiment: TEM of S. aureus cells treated with lipopeptide; type: cell-based, Staphylococcus aureus; settings: C8-LL-I at 25 µg/mL, 5 × 10^5 CFU/mL, incubated overnight at 37 °C
Description: The cells were centrifuged (8000 rpm, 15 min) and resuspended in fresh media to obtain a high-density cell suspension (5 × 10^5 CFU/mL). […] Afterward, the cells were centrifuged (8000 rpm, 15 min) and washed three times with PBS. The bacterial cells were fixed with 2.5% glutaraldehyde buffered at pH 6.5 with 0.1 M sodium cacodylate (Polysciences, Warrington, PA, USA) for 6 h at room temperature, as described earlier [52]. Additional fixation was performed with a 1% osmium tetroxide solution (Polysciences, Warrington, PA, USA) for 2 h at 4 °C. The cells were centrifuged and resuspended in 0.1 M cacodylate buffer, centrifuged again and dehydrated with ethanol. The bacteria were embedded in Epon 812 resin (Sigma-Aldrich, Darmstadt, Germany) at room temperature. A Leica UC7 ultramicrotome (Wetzlar, Germany) was used to obtain ultra-thin sections (55 nm). As contrasting agents, lead citrate and uranyl acetate were used. Cells were visualized using a Tecnai Spirit BioTWIN (EFI, Hillsboro, OR, USA) microscope at 120 kV.

POPC LUVs = experiment: Isothermal titration calorimetry, binding to POPC LUVs; settings: ITC, 25 °C, 1.3 mM POPC to 0.05 mM C10-LL-I
Description: as §6
The thermodynamic parameters of the interactions of the lipopeptides with POPG and POPC liposomes were determined by isothermal titration calorimetry (ITC). Measurements were performed at 25 °C using an AutoITC microcalorimeter (MicroCal Inc., Northampton, MA, USA) with a 1.4491 mL sample and reference cells. The experiment consisted in the titration of a buffered peptide solution with a concentration of 0.05 and/or 0.07 mM with a buffered solution containing POPG or POPC LUVs with a lipid concentration of 1.3 and 1.8 mM (10.02 µL; 29 injections, 2 µL for the first injection only), as it was described previously. The result of the titration was a thermogram showing a series of peaks corresponding to the titration steps. A titration curve was obtained after integration of the peak areas. The obtained isotherms were fitted to the “one set of sites” or “two sets of sites” models available in the ORIGIN 7.0 (MicroCal Inc., Northampton, MA, USA), which made it possible to determine the enthalpy (ΔH), the binding constant (KITC) and the stoichiometry (N) of the interactions between the lipopeptide and the lipids. […]

[4] = 0.05 or 0.07 mM peptide titrated with 1.3 or 1.8 mM POPG LUVs, one set of sites model (C10-LL-I: two sets of sites, first line)

SMILES | MIC, S. aureus PCM1650 (S. aureus PCM1650) [µg/mL] | MIC, S. aureus PCM2054 (S. aureus PCM2054) [µg/mL] | MIC, S. epidermidis PCM2118 (S. epidermidis PCM2118) [µg/mL] | MIC, S. epidermidis PCM521 (S. epidermidis PCM521) [µg/mL] | MIC, E. coli PCM2057 (E. coli PCM2057) [µg/mL] | MIC, C. albicans PCM2566 (C. albicans PCM2566) [µg/mL] | MIC, C. glabrata CCM8270 (C. glabrata CCM8270) [µg/mL] | MIC, C. krusei CCM8271 (C. krusei CCM8271) [µg/mL] | MIC, C. parapsilosis CCM 8260 (C. parapsilosis CCM 8260) [µg/mL] | SI MCF-7 [1] | SI PC3 [2] | θ222/θ208, POPC (POPC liposomes) | α-Helix percentage, POPC (POPC liposomes) [%] | θ222/θ208, POPG (POPG liposomes) | α-Helix percentage, POPG (POPG liposomes) [%] | pKITC, POPG (POPG LUVs; [4]) | further results
CCCCCCCC(=O)N[C@H](C(=O)N[C@@H](CC(N)=O)C(=O)N[C@@H](Cc1c[nH]c2ccccc12)C(=O)N[C@@H](CCCCN)C(=O)N[C@@H](CCCCN)C(=O)N[C@H](C(=O)N[C@@H](CC(C)C)C(=O)NCC(=O)N[C@@H](CCCCN)C(=O)N[C@H](C(=O)N[C@H](C(=O)N[C@@H](CCCCN)C(=O)N[C@H](C(=O)N[C@@H](C)C(=O)N[C@@H](CCCCN)C(N)=O)C(C)C)[C@@H](C)CC)[C@@H](C)CC)C(C)C)C(C)C [C8-LL-I] (Octanoyl-VNWKKVLGKIIKVAK-NH2) | 12.5 (≈ 6.76 µM) | 12.5 (≈ 6.76 µM) | 6.25 (≈ 3.38 µM) | 6.25 (≈ 3.38 µM) | 25 (≈ 13.5 µM) | >50 | 25 (≈ 13.5 µM) | 12.5 (≈ 6.76 µM) | 12.5 (≈ 6.76 µM) | 1.42 | 0.76 | 0.85 | 48 | 0.90 | 27 | 3.98 ± 0.06 | hydrodynamic diameter, peak of highest scattering intensity ([3]; 0.25 mM in PBS pH 7.4, 25 °C): 3360 ± 165 nm; hydrodynamic diameter, peak of highest scattering intensity ([3]; 0.5 mM salt-free aqueous solution, 25 °C): 404 ± 37 nm; hydrodynamic diameter ([3]; 2 mM in PBS pH 7.4, 25 °C): 3844 ± 1031 nm; effect on S. aureus cells (TEM) (S. aureus cells): induced thinning of the membrane and its disintegration
CCCCCCCCCC(=O)N[C@H](C(=O)N[C@@H](CC(N)=O)C(=O)N[C@@H](Cc1c[nH]c2ccccc12)C(=O)N[C@@H](CCCCN)C(=O)N[C@@H](CCCCN)C(=O)N[C@H](C(=O)N[C@@H](CC(C)C)C(=O)NCC(=O)N[C@@H](CCCCN)C(=O)N[C@H](C(=O)N[C@H](C(=O)N[C@@H](CCCCN)C(=O)N[C@H](C(=O)N[C@@H](C)C(=O)N[C@@H](CCCCN)C(N)=O)C(C)C)[C@@H](C)CC)[C@@H](C)CC)C(C)C)C(C)C [C10-LL-I] (Decanoyl-VNWKKVLGKIIKVAK-NH2) | 12.5 (≈ 6.66 µM) | 12.5 (≈ 6.66 µM) | 6.25 (≈ 3.33 µM) | 12.5 (≈ 6.66 µM) | 25 (≈ 13.3 µM) | >50 | 25 (≈ 13.3 µM) | 12.5 (≈ 6.66 µM) | 6.25 (≈ 3.33 µM) | 1.34 | 0.84 | 0.88 | 40 | 0.98 | 19 | 6.02 ± 1.09 | pKITC, POPG (POPG LUVs; two sets of sites model, second line): 4.69 ± 0.54; pKITC, POPC (POPC LUVs): 4.42 ± 0.24
